From patent EP0155623A2, “Use of lipoxygenase inhibitors for the preparations of cytoprotective pharmaceutical compostions and process for the preparation of a cytoprotective pharmaceutical composition” (Merck & Co., Inc., priority 1984, dated 1985) come the findings set out here.

The assay concerns ulcers in 24 hr. fasted S.D. rats. Description: Indomethacin-Induced Ulcer Assay (assay B). The class given is in vivo. The following applies: 15 min prior to indomethacin 10 mg/kg p.o., stomach mucosae examined 4 hours later. As to the method: B. Indomethacin-Induced Ulcer Assay
Indomethacin, 10 mg/kg p.o., is used to induce ulcers in 24 hr. fasted S.D. rats. Fifteen minutes prior to indomethacin administration, groups of rats each receive either an aqueous vehicle (5% wt. methylcellulose) or the test compound at various doses perorally. Four hours later the animals are sacrificed and stomach-mucosae are examined for resulting ulcers.
Following the procedure of assay B (Indomethacin-Induced Ulcer Assay), 4-bromo-2,7-dimethoxy-3H-phenothiazin-3-one was tested for ulcer inhibition. For Table 49-1, % Inhibition was calculated as: [formula]

On to `COc1ccc2nc3cc(OC)c(=O)c(Br)c-3sc2c1` [4-Bromo-2,7-dimethoxy-3H-phenothiazin-3-one], for which the “% Inhibition” value (Dose 0.003 mg/kg perorally) was determined as 38%; the “% Inhibition” value (Dose 0.01 mg/kg perorally) came to 56%; the “% Inhibition” value (Dose 0.03 mg/kg perorally) came out at 69%; the “% Inhibition” value (Dose 0.1 mg/kg perorally) amounted to 66%; the “% Inhibition” value (Dose 0.3 mg/kg perorally) was determined as 70%; the “% Inhibition” value (Dose 3.0 mg/kg perorally) was 87%.

One may read the % Inhibition as the drop in the measured response relative to a control, in per cent.
